Data published in patent US9921225B2, “Phenyl glyoxal probes” (The Scripps Research Institute, priority 2012, dated 2018).
Several values for one entry are separate records, joined by “and”; a condition that tells them apart may be missing. Identical values can stand only once. One block for each compound: values may come before it.

Key:
autodeiminated PAD4 [1] = molecular target: T1, autodeiminated PAD4 (Homo sapiens, UniProt Q9UM07); experiment: Biotin-PG limit of detection, streptavidin-HRP blot; details: Example 1; 20% TCA, 0.1 mM Biotin-PG, 37° C., 3 h
Procedure: Biotin-PG Pulldown and Labeling—It was next set out to determine the utility of the biotin-tagged PG probe, Biotin-PG (FIG. 2), as a tool for labeling, isolating, and enriching citrullinated proteins. As with the Rh-PG probe, the LOD of this probe was first determined with respect to autodeiminated PAD4. For these studies, autodeiminated PAD4, prepared as described above, was diluted into 50 mM HEPES pH 8.0 to final concentrations of 1.6 μM, 0.16 μM, 16 nM, 1.6 nM, and 0.16 nM. These samples were then incubated at 37° C. for 3 h with 20% TCA and 0.1 mM Biotin-PG. Solutions were quenched, cooled on ice for 30 min, and centrifuged at 14,000 rpm for 15 min at 4° C. The supernatant was removed and samples were washed with cold acetone and dried at 100° C. for 5 min. Proteins were resuspended in 25 μL of 50 mM HEPES and boiled with 6×SDS loading dye and various amounts of protein (i.e., 1,000, 100, 10, 1, and 0.1 ng) loaded onto a 12% SDS-PAGE gel. Gel electrophoresis was performed at 200 V for 50 min and proteins were subsequently electrotransferred to nitrocellulose (tris-glycine buffer; 80 V; 70 min) and the membrane blocked with 5% BSA in PBS for 1 h at rt. After washing 2× with PBS (10 min), the blot was treated with streptavidin-HRP (1:20,000) in 5% BSA in PBS for 1 h at rt. […]

[2] = test system: DSS induced ulcerative colitis; details: cited from earlier work
[3] = test system: serum protein citrullination; experiment: Rh-PG analysis of murine ulcerative colitis serum samples; format: in vivo, mouse; details: serum of DSS mice treated with Cl-amidine
Procedure: Rh-PG Analysis of Murine Ulcerative Colitis Serum Samples: Serum samples Cl-amidine efficacy in a mouse model of ulcerative colitis were obtained and analyzed by the Rh-PG method. Briefly, the protein concentration of serum samples was first obtained using a standard Lowry assay. A sample (2 mg/mL; 30 μL) of each serum sample (i.e., 14 total; 7 DSS; 7 DSS+Cl-amidine) was prepared in 50 mM HEPES and treated with 20% TCA and 0.1 mM Rh-PG for 30 min at 37° C. Samples were then quenched with citrulline, cooled, centrifuged, washed, and dried. After resuspending in 50 mM HEPES, samples were separated by SDS-PAGE (12%; 170 V; 50 min) and imaged on a Typhoon Imager (Ex. 532 nm; Em. 580 nm). Images were analyzed using ImageQuant 5.2 and correlation coefficients were determined using Microsoft Excel. These experiments were run in duplicate on different days. Subsequent statistical analysis was done using STATISTICA, utilizing two-tailed, independent student's t-tests to determine significance (i.e., P-value) between diseased and Cl-amidine treated samples. Correlation coefficients were calculated in Microsoft Excel, utilizing a table of critical values of Pearson's r with a degree of freedom value of 12 (n−2) to determine the significance (i.e., P-value) of the correlation between the fluorescence of a particular protein and a disease score.

autodeiminated PAD4 [4] = molecular target: T1, autodeiminated PAD4; experiment: Rh-PG limit of detection, SDS-PAGE and fluorescent imaging; details: Example 1; 20% TCA, 0.1 mM Rh-PG, 37° C., 3 h; LOD defined as three times the noise
Procedure: The sensitivity of the probe was analyzed next (FIGS. 5A, 5B). Autodeiminated PAD4, prepared as described above, was diluted into 50 mM HEPES pH 8.0 to final concentrations of 1.6 μM, 0.16 μM, 16 nM, 1.6 nM, and 0.16 nM. To one set of samples was added 0.1 mM Rh-PG, and to a second set, 20% TCA and 0.1 mM Rh-PG. The samples were then incubated at 37° C. for 3 h. To TCA precipitate autodeiminated PAD4, the acidic solutions were cooled on ice for 30 min and then centrifuged at 14,000 rpm for 15 min at 4° C. The supernatant was removed and samples were washed with cold acetone and dried at 100° C. for 5 min. Proteins were resuspended in 25 μL of 50 mM HEPES. Both basic and acidic samples were then boiled with 6×SDS loading dye and various amounts of protein (i.e., 1000, 100, 10, 1, and 0.1 ng) loaded onto a 12% SDS-PAGE gel. Gel electrophoresis was performed at 170 V for 60 min and the gels analyzed on a Typhoon Imager (Ex. 532 nm; Em. 580 nm) (FIGS. 5A, 5B). […]
Rh-PG Limit of Detection: Citrullinated H3 and autodeiminated PAD4, prepared as described above, were diluted into 50 mM HEPES pH 7.6 to final concentrations of (2.2 μM, 0.22 μM, 22 nM, 2.2 nM, and 0.22 nM H3) and (0.16 μM, 16 nM, 1.6 nM, 0.16 nM, and 0.016 nM PAD4). […] Gel electrophoresis was performed at 170 V for 50 min and the gels analyzed on a Typhoon Imager (Ex. 532 nm; Em. 580 nm).

PAD3 = molecular target: T2, PAD3 (Homo sapiens, UniProt Q9ULW8); experiment: Kinetic characterization of ApoA1 as a PAD substrate using Rh-PG; format: biochemical; details: recombinant huApoA1, Rh-PG readout
T2 sequence (Q9ULW8 1-664): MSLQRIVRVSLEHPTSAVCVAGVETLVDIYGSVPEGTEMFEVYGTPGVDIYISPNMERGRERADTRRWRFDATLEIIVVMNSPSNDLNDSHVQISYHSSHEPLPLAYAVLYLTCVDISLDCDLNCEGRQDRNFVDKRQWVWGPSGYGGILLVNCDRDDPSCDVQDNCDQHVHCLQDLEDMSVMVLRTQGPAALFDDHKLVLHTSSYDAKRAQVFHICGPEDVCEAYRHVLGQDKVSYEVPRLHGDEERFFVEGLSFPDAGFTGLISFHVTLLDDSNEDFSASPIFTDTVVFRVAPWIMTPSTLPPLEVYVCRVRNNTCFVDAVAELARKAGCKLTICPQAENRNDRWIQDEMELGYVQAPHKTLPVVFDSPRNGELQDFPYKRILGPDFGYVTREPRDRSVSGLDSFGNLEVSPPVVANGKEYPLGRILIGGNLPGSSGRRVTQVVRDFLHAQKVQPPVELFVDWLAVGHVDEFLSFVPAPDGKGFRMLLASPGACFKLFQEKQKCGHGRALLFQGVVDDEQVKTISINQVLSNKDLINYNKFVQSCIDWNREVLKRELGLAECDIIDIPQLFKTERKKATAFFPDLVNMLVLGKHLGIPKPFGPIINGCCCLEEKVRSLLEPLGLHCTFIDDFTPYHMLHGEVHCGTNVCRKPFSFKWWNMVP
Procedure: (§1) To verify that ApoA1 is the modified 25 kDa protein in the UC samples, anti-ApoA1 Western blotting of Biotin-PG pulldown samples was performed (FIG. 24A). […] To test human ApoA1 as a PAD substrate, recombinant huApoA1 was first treated ±PADs 1-4 and then analyzed with the Rh-PG probe (FIG. 24B). […] PADs 2, 3, and 4 also modified ApoA1, albeit to a lesser extent. To further evaluate citrullination of ApoA1, the steady state kinetic parameters were determined using Rh-PG.

PAD2 = PAD2 (Homo sapiens, UniProt Q9Y2J8); experiment: as above; format: biochemical; details: recombinant huApoA1, Rh-PG readout
Procedure: as §1

PAD4 = PAD4 (Homo sapiens, UniProt Q9UM07); experiment: Steady-state kinetic assay of protein citrullination using Rh-PG; format: biochemical; details: recombinant huApoA1, Rh-PG readout
[5] = group average, Group 8 WT, 2% DSS + Cl-Amidine @ 75 mg/kg
[6] = individual mice, Group 8 WT, 2% DSS + Cl-Amidine @ 75 mg/kg

T1 sequence (Q9UM07 whole entry): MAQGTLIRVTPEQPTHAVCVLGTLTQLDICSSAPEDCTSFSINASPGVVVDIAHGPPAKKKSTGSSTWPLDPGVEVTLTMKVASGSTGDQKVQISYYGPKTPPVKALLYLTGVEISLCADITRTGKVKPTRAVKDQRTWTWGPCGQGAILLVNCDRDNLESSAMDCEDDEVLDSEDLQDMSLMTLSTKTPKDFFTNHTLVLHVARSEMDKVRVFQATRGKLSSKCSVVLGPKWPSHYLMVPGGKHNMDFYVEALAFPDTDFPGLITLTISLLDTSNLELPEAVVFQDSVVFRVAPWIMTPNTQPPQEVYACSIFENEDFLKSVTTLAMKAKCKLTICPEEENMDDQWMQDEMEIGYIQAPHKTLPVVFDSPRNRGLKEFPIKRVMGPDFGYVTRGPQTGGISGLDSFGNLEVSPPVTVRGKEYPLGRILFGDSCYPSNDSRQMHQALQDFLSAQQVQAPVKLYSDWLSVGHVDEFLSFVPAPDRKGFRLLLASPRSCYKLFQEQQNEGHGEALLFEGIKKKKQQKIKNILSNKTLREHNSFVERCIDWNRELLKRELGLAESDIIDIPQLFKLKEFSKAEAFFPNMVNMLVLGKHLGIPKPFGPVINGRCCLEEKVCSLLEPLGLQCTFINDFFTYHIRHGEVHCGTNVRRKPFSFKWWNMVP
Chain of PAD2 (Q9Y2J8 whole entry, species assumed): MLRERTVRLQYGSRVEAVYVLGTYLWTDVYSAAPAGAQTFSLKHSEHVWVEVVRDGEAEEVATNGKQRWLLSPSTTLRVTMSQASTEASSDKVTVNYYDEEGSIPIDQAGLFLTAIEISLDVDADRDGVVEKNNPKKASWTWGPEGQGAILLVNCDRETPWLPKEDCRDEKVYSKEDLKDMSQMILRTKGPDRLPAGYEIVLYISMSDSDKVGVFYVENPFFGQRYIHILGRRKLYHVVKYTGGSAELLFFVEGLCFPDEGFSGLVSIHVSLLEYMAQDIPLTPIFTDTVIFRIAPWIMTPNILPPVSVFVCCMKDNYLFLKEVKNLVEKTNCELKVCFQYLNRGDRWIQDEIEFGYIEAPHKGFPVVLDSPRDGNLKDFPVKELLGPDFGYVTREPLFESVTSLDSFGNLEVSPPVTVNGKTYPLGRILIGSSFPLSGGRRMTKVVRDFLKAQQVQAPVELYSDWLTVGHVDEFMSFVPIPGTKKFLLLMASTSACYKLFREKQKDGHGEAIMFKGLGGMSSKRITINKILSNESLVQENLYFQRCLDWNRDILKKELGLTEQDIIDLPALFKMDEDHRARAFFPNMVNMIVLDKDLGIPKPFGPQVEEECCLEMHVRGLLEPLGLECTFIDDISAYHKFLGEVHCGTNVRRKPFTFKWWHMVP
Chain of PAD4 (Q9UM07 whole entry, species assumed): as the sequence (Q9UM07 whole entry) above

limit of detection of Biotin-PG probe, autodeiminated PAD4 (autodeiminated PAD4 [1]): 100 ng
Compound: O=CC(=O)c1cccc(NC(=O)CCn2cc(CCCC(=O)NCCNC(=O)CCCC[C@@H]3SC[C@@H]4NC(=O)N[C@@H]43)nn2)c1 [Biotin-PG]

Compound: NC(=O)[C@H](CCCN=C(N)CCl)NC(=O)c1ccccc1 [Cl-amidine]
disease severity ([2]; DSS mouse model of ulcerative colitis, previous study (Chumanevich 2011)): reduces disease severity | Colon Length, Average [2, 5]: 8.1 cm | Inflam. Score, Average [2, 5]: 14.6 | Lym, Average [2, 5]: 8.2 m/mm^3 | WBC, Average [2, 5]: 13.7 m/mm^3 | Weight (end), Average [2, 5]: 23.3 g | Weight Diff., Average [2, 5]: 0.7 g | Colon Length [2, 6]: 7.6 cm (2×) and 8.1 cm and 8.2 cm and 8.6 cm and 8 cm and 8.4 cm | Inflam. Score [2, 6]: 14 (2×) and 24 and 12 (2×) and 10 and 16 | Lym [2, 6]: 5.68 m/mm^3 and 3.87 m/mm^3 and 11.35 m/mm^3 and 9.4 m/mm^3 and 6.87 m/mm^3 and 9.35 m/mm^3 and 10.83 m/mm^3 | WBC [2, 6]: 9.75 m/mm^3 and 9.08 m/mm^3 and 18.14 m/mm^3 and 15.12 m/mm^3 and 11.46 m/mm^3 and 15.91 m/mm^3 and 16.41 m/mm^3 | Weight Diff. [2, 6]: 0.8 g (2×) and 0.15 g and 1.3 g and 0.5 g and 0.7 g and 0.3 g | Weight (end) ([2]; individual mice, Group 8 WT, 2% DSS + Cl-Amidine @ 75 mg/kg, in g): 23.4 and 22.05 and 22.7 and 24.1 and 25 and 22.5 and 23.6 | effect on global citrullination (whole lane) [3]: significantly decreases global citrullination

limit of detection (LOD) of Rh-PG probe labeling of autodeiminated PAD4 (autodeiminated PAD4 [4]): 1 ng
Compound: CC(C(=O)Nc1cccc(C(=O)C=O)c1)n1cc(CNC(=O)c2ccc3c(c2)C2(OC3=O)c3ccc(N(C)C)cc3Oc3cc(N(C)C)ccc32)nn1 (stereo not shown) [Rh-PG, N-(3-Glyoxyl)phenylamino)propionyl)-1H-1,2,3-triazol-4-yl)methyl-5(6)-carboxamidotetramethyl rhodamine hydrate]

substrate quality for PAD3 (PAD3): modest substrate | substrate quality for PAD2 (PAD2): modest substrate | substrate quality for PAD4 (PAD4): modest substrate
Compound: ApoA1: apolipoprotein-A1, a key component of High Density Lipoprotein; recombinant huApoA1 tested as PAD substrate
